Reference: ChEMBL document CHEMBL4376867 (J Med Chem, 2020)

Columns and labels:
[1] = molecular target: T1, Serine/threonine-protein kinase TBK1 (Homo sapiens, UniProt Q9UHD2); experiment: Inhibition of recombinant full length human N-terminal His-tagged TBK1 using biotin-labelled Ahx-GDEDFSSFAEPG peptide as substrate preincubated with enzyme for 15 mins followed by substrate addition and further incubated for 30 mins in presence of 1 mM of ATP by TR-FRET assay
T1 sequence (Q9UHD2 whole entry): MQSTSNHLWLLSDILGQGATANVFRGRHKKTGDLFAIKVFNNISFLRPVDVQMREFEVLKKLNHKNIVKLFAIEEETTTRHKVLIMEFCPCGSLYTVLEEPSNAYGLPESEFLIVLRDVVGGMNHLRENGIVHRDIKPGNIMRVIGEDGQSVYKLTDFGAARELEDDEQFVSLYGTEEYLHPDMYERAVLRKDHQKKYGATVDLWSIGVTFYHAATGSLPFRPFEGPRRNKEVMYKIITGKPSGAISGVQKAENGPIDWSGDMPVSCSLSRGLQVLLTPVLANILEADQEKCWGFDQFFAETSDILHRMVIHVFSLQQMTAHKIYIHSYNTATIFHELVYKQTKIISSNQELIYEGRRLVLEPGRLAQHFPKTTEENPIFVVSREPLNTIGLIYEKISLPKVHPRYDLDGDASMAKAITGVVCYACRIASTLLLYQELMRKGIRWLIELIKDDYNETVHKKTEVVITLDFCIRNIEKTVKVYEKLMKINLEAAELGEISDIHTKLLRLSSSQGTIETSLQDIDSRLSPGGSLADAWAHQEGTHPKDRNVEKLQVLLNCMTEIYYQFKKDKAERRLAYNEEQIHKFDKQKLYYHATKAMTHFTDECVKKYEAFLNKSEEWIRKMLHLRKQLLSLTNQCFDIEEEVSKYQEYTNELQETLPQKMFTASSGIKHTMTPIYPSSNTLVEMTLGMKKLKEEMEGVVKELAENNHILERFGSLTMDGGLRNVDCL

SK-MEL-2 = experiment: Antiproliferative activity against human SK-MEL-2 cells harboring NRAS/TP53 mutation assessed as reduction in cell viability after 96 hrs by CellTiter-Glo luminescence assay; assay type: functional, cell-based; settings: SK-MEL-2, 96 h
[2] = molecular target: Ribosomal protein S6 kinase alpha-6 (Homo sapiens, UniProt Q9UK32); experiment: Inhibition of recombinant full length human His6-tagged RSK4 expressed in baculovirus infected sf21 cells using biotin labelled Ahx-KKLNRTLSFAEPG peptide as substrate preincubated with enzyme for 15 mins followed by substrate addition and further incubated for 30 mins in presence of 10 uM of ATP by TR-FRET assay
[3] = molecular target: T1, Serine/threonine-protein kinase TBK1
[4] = molecular target: T2, Serine/threonine-protein kinase ULK1 (Homo sapiens, UniProt O75385); experiment: Inhibition of wild-type human partial length ULK1 (M1 to T309 residues) expressed in mammalian expression system
T2 sequence (O75385 whole entry): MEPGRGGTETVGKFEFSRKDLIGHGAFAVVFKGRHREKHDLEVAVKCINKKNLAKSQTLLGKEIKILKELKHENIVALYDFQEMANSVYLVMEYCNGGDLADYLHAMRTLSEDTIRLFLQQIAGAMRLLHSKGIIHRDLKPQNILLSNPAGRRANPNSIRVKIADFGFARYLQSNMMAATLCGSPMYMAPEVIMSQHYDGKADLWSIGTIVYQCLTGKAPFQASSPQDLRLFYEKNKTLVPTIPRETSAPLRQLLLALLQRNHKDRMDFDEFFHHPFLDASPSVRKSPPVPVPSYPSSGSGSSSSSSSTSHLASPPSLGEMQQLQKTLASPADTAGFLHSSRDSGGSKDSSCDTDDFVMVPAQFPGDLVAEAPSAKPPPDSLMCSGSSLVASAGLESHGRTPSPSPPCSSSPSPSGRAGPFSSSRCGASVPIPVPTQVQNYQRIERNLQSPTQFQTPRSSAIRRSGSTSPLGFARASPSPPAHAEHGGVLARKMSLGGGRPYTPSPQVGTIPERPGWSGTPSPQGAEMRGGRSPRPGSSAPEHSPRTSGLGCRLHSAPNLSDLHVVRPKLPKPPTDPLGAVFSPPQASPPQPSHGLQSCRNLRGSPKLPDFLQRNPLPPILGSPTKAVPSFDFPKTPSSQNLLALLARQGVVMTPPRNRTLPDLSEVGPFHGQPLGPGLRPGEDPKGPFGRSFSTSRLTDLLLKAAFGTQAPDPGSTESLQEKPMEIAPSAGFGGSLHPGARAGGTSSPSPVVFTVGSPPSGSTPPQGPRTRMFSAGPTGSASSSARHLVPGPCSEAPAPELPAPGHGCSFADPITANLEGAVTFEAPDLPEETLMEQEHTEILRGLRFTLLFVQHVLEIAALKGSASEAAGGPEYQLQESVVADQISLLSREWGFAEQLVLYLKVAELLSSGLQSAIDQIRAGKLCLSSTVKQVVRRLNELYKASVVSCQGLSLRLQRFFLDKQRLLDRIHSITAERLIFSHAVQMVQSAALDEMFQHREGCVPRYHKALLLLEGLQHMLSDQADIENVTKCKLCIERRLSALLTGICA

[5] = Apparent permeability of compound across apical to basal membrane in human Caco2 cells at 2 uM in DMSO after 2 hrs by LC-MS/MS analysis; assay type: ADME, cell-based; settings: Caco-2
[6] = Apparent permeability of compound across basal to apical membrane in human Caco2 cells at 2 uM in DMSO after 2 hrs by LC-MS/MS analysis; assay type: ADME, cell-based; settings: Caco-2

Chain of Ribosomal protein S6 kinase alpha-6 (Q9UK32 whole entry): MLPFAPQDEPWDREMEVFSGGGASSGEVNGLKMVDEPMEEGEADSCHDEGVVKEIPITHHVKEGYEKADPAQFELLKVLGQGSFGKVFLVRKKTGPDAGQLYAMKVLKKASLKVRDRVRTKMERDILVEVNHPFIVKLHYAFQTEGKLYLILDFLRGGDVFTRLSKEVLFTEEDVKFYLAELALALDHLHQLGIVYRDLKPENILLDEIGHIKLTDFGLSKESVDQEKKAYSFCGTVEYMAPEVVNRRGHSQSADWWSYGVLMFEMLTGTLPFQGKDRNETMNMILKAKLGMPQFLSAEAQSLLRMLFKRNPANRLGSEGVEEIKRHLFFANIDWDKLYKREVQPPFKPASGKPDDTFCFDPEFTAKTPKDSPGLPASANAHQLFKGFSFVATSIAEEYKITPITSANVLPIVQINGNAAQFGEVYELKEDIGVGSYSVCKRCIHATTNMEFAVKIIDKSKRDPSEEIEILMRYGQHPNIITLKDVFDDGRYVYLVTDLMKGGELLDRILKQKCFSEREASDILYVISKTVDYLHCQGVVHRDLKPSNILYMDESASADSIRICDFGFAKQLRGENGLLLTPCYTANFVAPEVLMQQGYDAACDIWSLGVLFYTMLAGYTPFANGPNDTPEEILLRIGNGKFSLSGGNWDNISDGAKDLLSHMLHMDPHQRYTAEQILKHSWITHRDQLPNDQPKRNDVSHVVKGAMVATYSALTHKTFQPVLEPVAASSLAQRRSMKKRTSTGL

Which IC50 [1] does the source give for CC(C)Oc1cncnc1-c1ccc2nc(Nc3cc([C@@H](C)N4CCN(C(=O)CC(F)(F)F)CC4)ccn3)[nH]c2c1 here?
Its IC50 is 50 nM.

And the IC50 (SK-MEL-2)?
The IC50 was 3970 nM.

And the IC50 [2]?
The IC50 was 7 nM.

What about the IC50 [3] of the same molecule?
Its IC50 is 2 nM.

And the IC50 [4]?
Its IC50 is 263 nM.

For CNc1cc(-c2ccc3nc(Nc4cc(CN5CCN(C(=O)CC(F)(F)F)CC5)ccn4)[nH]c3c2)ncn1, which IC50 [1] is on record?
Its IC50 is 155 nM.

What about the IC50 (SK-MEL-2) of the same molecule?
Its IC50 is 245 nM.

What about the IC50 [2] of the same molecule?
Its IC50 is 177 nM.

And the IC50 [3]?
Its IC50 is 10 nM.

What about the IC50 [4] of the same molecule?
The IC50 was 1640 nM.

Which IC50 [1] does the source give for C[C@H](c1ccnc(Nc2nc3ccc(-c4cc(N(C)C)ncn4)cc3[nH]2)c1)N1CCN(C(=O)CC(F)(F)F)CC1 [BAY-985] here?
Its IC50 is 30 nM.

What about the IC50 (SK-MEL-2) of the same molecule?
Its IC50 is 900 nM.

And the IC50 [2]?
The IC50 was 276 nM.

And the Papp A→B at 2 h, 2 µM [5]?
Its Papp A→B at 2 h, 2 µM is 0.89 to 0.9 ×10⁻⁶ cm/s.

What about the Papp B→A at 2 h, 2 µM [6] of the same molecule?
Its Papp B→A at 2 h, 2 µM is 14.6 to 14.7 ×10⁻⁶ cm/s.

What about the IC50 [3] of the same molecule?
Its IC50 is 2 nM.

And the IC50 [4]?
Its IC50 is 7930 nM.

For C[C@H](c1ccnc(Nc2nc3ccc(-c4cc(OCC5CC5)ncn4)cc3[nH]2)c1)N1CCN(C(=O)CC(F)(F)F)CC1, which IC50 [1] is on record?
The IC50 was 5 nM.

What about the IC50 (SK-MEL-2) of the same molecule?
Its IC50 is 470 nM.

What about the IC50 [2] of the same molecule?
Its IC50 is 1260 nM.

And the IC50 [3]?
The IC50 was 2 nM.

What about the IC50 [4] of the same molecule?
The IC50 was 416 nM.

For O=C(CC(F)(F)F)N1CCN(Cc2ccnc(Nc3nc4ccc(-c5cnn(CC6CC6)c5)cc4[nH]3)c2)CC1, which IC50 [1] is on record?
The IC50 was 137 nM.

And the IC50 (SK-MEL-2)?
Its IC50 is 221 nM.

And the IC50 [2]?
Its IC50 is 4120 nM.

And the Papp A→B at 2 h, 2 µM [5]?
Its Papp A→B at 2 h, 2 µM is 3.2 ×10⁻⁶ cm/s.

And the Papp B→A at 2 h, 2 µM [6]?
Its Papp B→A at 2 h, 2 µM is 12.5 ×10⁻⁶ cm/s.

And the IC50 [3]?
The IC50 was 5 nM.

What about the IC50 [4] of the same molecule?
Its IC50 is 28 nM.

For Cc1noc(-c2ccc3nc(Nc4cc([C@@H](C)N5CCN(C(=O)CC(F)(F)F)CC5)ccn4)[nH]c3c2)n1, which IC50 [1] is on record?
The IC50 was 372 nM.

And the IC50 (SK-MEL-2)?
Its IC50 is 3530 nM.

And the IC50 [2]?
The IC50 was 2360 nM.

And the Papp A→B at 2 h, 2 µM [5]?
Its Papp A→B at 2 h, 2 µM is 10.8 ×10⁻⁶ cm/s.

What about the Papp B→A at 2 h, 2 µM [6] of the same molecule?
The Papp B→A at 2 h, 2 µM was 8.6 ×10⁻⁶ cm/s.

And the IC50 [3]?
Its IC50 is 19 nM.

With Cc1noc(-c2ccc3nc(Nc4cc(CN5CCN(C(=O)CC(F)(F)F)CC5)ccn4)[nH]c3c2)n1 as the molecule, how does the IC50 [1] read?
The IC50 was 2270 nM.

And the IC50 (SK-MEL-2)?
The IC50 was 2180 nM.

What about the IC50 [2] of the same molecule?
Its IC50 is 8910 nM.

What about the Papp A→B at 2 h, 2 µM [5] of the same molecule?
Its Papp A→B at 2 h, 2 µM is 4.2 ×10⁻⁶ cm/s.

And the Papp B→A at 2 h, 2 µM [6]?
Its Papp B→A at 2 h, 2 µM is 14.2 ×10⁻⁶ cm/s.

And the IC50 [3]?
Its IC50 is 129 nM.

What does the source list for COCc1cc(-c2ccc3nc(Nc4cc([C@@H](C)N5CCN(C(=O)CC(F)(F)F)CC5)ccn4)[nH]c3c2)ncn1?
IC50 (SK-MEL-2): 883 nM; IC50 [2]: 192 nM; Papp A→B at 2 h, 2 µM [5]: 1.4 ×10⁻⁶ cm/s; Papp B→A at 2 h, 2 µM [6]: 21.8 ×10⁻⁶ cm/s; IC50 [4]: 368 nM

Which results are given for C[C@H](c1ccnc(Nc2nc3ccc(-c4cnn(CC5CC5)c4)cc3[nH]2)c1)N1CCN(C(=O)CC(F)(F)F)CC1?
IC50 [1]: 18 nM; IC50 (SK-MEL-2): 408 nM; IC50 [2]: 3220 nM; Papp A→B at 2 h, 2 µM [5]: 1.6 ×10⁻⁶ cm/s; Papp B→A at 2 h, 2 µM [6]: 11.8 ×10⁻⁶ cm/s; IC50 [3]: 1 nM; IC50 [4]: 9 nM

Which IC50 [1] does the source give for CN(C)c1cc(-c2ccc3nc(Nc4cc(CN5CCN(C(=O)CC(F)(F)F)CC5)ccn4)[nH]c3c2)ncn1 here?
Its IC50 is 167 nM.

What about the IC50 (SK-MEL-2) of the same molecule?
The IC50 was 246 nM.

And the IC50 [2]?
Its IC50 is 528 nM.

And the IC50 [3]?
Its IC50 is 9 nM.

And the IC50 [4]?
Its IC50 is > 10000 nM.

For Cc1cc(-c2ccc3nc(Nc4cc([C@@H](C)N5CCN(C(=O)CC(F)(F)F)CC5)ccn4)[nH]c3c2)ncn1, which IC50 [1] is on record?
The IC50 was 17 nM.

What about the IC50 (SK-MEL-2) of the same molecule?
The IC50 was 476 nM.

What about the IC50 [2] of the same molecule?
The IC50 was 170 nM.

And the IC50 [3]?
Its IC50 is 2 nM.

What about the IC50 [4] of the same molecule?
Its IC50 is 980 nM.
